# Where two headings read alike, the source gives them in different places.
# Experiments:
# acute traumatic SCI [1] = experiment: ASIA sensory recovery (pinprick, light touch) after acute traumatic SCI; format: in vivo, human
# Procedure: Clin. Exp. Pharmacol. Physiol. 1:299-308). […] Neurological function was assessed at intervals using the American Spinal Cord Injury Association (ASIA) standardized neurological examination and included the motor composites and sensory composites. These examinations were performed by a physical medicine and rehabilitation specialist at Day 1 (time of enrolment), Day 4, Day 5, Day 7, Week 3, Week 6, Week 12, Month 6, and Month 12 (Table 3). Day 1 scores were subtracted from each subsequent score to calculate improvement from baseline for graphing purposes. […] ASIA sensory scores were similarly evaluated. […] Functional recovery data were compared over all data points. […] All statistical tests were two-tailed (a=0.05).
# [2] = cited from earlier work
# [3] = Serum and CSF minocycline steady-state levels in SCI trial subjects
# Procedure: Drug or placebo infusions were continued for a total of 14 doses i.e., for 7 days after injury (FIG. 1). All infusions were administered through a subclavian central venous catheter for a 30-min period.
# Each sample was centrifuged at 2000 rpm for 5 min to separate cellular matter. The supernatant was flash frozen and stored at −80° C. in aliquots.
# SCI [4] = conditions: mice; two 50 mg/kg i.p. doses then three 25 mg/kg doses at 24 h intervals; cited from earlier work
# cervical SCI = conditions: rat; 90 mg/kg i.p. daily for 3 days; 42-day monitoring; cited from earlier work
# SCI [5] = conditions: rats; three 30 mg/kg i.p. doses at 30 min, 60 min, 24 h after SCI; 28-day observation; cited from earlier work
# acute traumatic SCI [6] = experiment: Functional recovery scales (SCIM, FIM, London Handicap, SF36) after SCI; format: in vivo, human; conditions: 6 to 52 weeks after injury
# Procedure: Clin. Exp. Pharmacol. Physiol. 1:299-308). […] Functional outcome was assessed using the Spinal Cord Independence Measure, Functional Independence Measure, London Handicap scale, and Short Form 36 questionnaires administered at 6 weeks, 12 weeks, 26 weeks, and 52 weeks after injury. […] ASIA sensory scores were similarly evaluated. […] Functional recovery data were compared over all data points. […] All statistical tests were two-tailed (a=0.05).
# [7] = test system: hypoxic-ischemic brain injury; conditions: mice; s.c. 135 mg/kg then two 68 mg/kg doses at 24-h intervals; cited from earlier work
# [8] = cited from earlier work; remark: listed apart in the source
# [9] = test system: mixed neuronal and glial spinal cord cultures; conditions: 20 nM, 30 minutes before 24-hour excitotoxin exposure; cited from earlier work
# SCI [10] = conditions: rats; 90 mg/kg immediately after SCI then 45 mg/kg every 12 h; cited from earlier work
# MMP activity = conditions: cited from earlier work
# [11] = long-term administration, global reports
# [12] = 200 mg twice-daily intravenously
# [13] = 800 mg loading dose tapered by 100 mg every 12 h to 400 mg, IV, 7 days
smiles,measurement,setting,value
"CN(C)c1ccc(O)c2c1C[C@H]1C[C@H]3[C@H](N(C)C)C(O)=C(C(N)=O)C(=O)[C@@]3(O)C(O)=C1C2=O [minocycline, (2E,4S,4aR,5aS,12aR)-2-(amino-hydroxy-methylidene)-4,7-bis(dimethylamino)-10,11,12a-trihydroxy-4-a,5,5a,6-tetrahydro-4H-tetracene-1,3,12-trione]",ASIA pinprick sensory recovery greater than placebo,"acute traumatic SCI [1]; all subjects, not statistically significant, P=0.15",nine
same,ASIA light-touch sensory recovery greater than placebo,"acute traumatic SCI [1]; all subjects, not statistically significant, P=0.27",seven
same,ASIA light-touch score higher than placebo,"acute traumatic SCI [1]; cervical motor-incomplete, P=0.20",20 light-touch points
same,ASIA pinprick score higher than placebo,"acute traumatic SCI [1]; cervical motor-incomplete, P=0.49",14 pinprick points
same,difference in sensory scores vs placebo,acute traumatic SCI [1]; thoracic SCI,No difference
same,serum concentrations well tolerated,[2]; humans,up to 6.2 mg/L
same,cases of drug induced lupus,[2]; [11],33 cases
same,cases of hypersensitivity reaction,[2]; [11],19 cases
same,cases of serum sickness-like reaction,[2]; [11],11 cases
same,cases of single organ dysfunction,[2]; [11],40 cases
same,CSF steady-state concentration,[3]; [12],1 µg/mL
same,time to serum steady state,[3]; [12],≤ 48 h
same,serum steady-state concentration,"[3]; 200 mg twice-daily intravenously, first five patients",4.2 µg/mL
same,time to serum and CSF steady state,"[3]; 800 mg loading dose tapered by 100 mg every 12 h to 400 mg, IV",≤ 24 h
same,CSF steady state,[3]; [13],2.3 µg/mL
same,serum steady-state concentration,[3]; [13],12.7 µg/mL
same,recovery from SCI,SCI [4],facilitated significant recovery
same,functional or histological improvements,cervical SCI,did not result in any functional or histological improvements
same,recovery in functional hind limb motor control,SCI [5],facilitated significant recovery
same,"functional outcomes (SCIM, FIM, London Handicap Scale, Short Form 36) vs placebo",acute traumatic SCI [6],greater in the minocycline-treated group but the differences were not statistically significant
same,effects of hypoxic-ischemic brain injury,[7],significantly exacerbated
same,eliminated unchanged through the kidneys,"[8]; human, in vivo",Eight to twelve
same,elimination in biologically active form through the feces,"[8]; human, in vivo",20-35 % of the initial dose
same,metabolism to three inactive liver metabolites excreted in urine and feces,"[8]; human, in vivo",50-60 % of the administered dose
same,peak serum concentration,[8]; oral 150 mg,about 2 mg/L
same,peak serum concentration,[8]; oral 300 mg,about 4 mg/L
same,half-life,[8]; oral or intravenous administration,16 h
same,IL-1β and NO metabolite production,[9],reduced
same,microglia proliferation,[9],Inhibition
same,neuronal cell survival,[9],more than doubled
same,functional motor control in the hind limbs,SCI [10],improved
same,size of lesions on spinal cords,SCI [10],reduced
same,inhibition of MMP activity,MMP activity,potent inhibitor

# — patent publication US20140274969A1 (priority 2013, published 2014)
